The text below walks through data of PMC9312901 (2022).

The subject of assay [1] is APT (3-O-C12-HSL aptamer) (DNA, aptamer) GCAATGGTACGGTACTTCCCGGGGCCCGCTTCTGGTGCGGTGTACTAGTGACCGCAAAAGTGCACGCTACTTTGCTAA
Put plainly: DPV on C-SPE/AuNPs/APT/MCH electrode. The settings on record: 0.5 mM MB, 30 min; measured in 10 mM PBS pH 7.4; MB lost on successive blank incubations.

Assay [2] has the same test system. Put plainly: SPR, kinetic 1:1 Langmuir fit (kd/ka). The settings on record: Na+ 100 mM; K+ 100 mM; Mg2+ 10 mM (TRIS buffer; running buffer printed only as 10 mM TRIS); 10 mM TRIS pH 7.4 running buffer; aptamer on gold chip, MCH blocked; 10-1000 nM. In general terms: SPR reads the build-up and loss of mass on a sensor chip optically.
Assay [3] has the same test system. The experiment in a line: SPR, steady-state affinity fit. The settings on record: Na+ 100 mM; K+ 100 mM; Mg2+ 10 mM (TRIS buffer; running buffer printed only as 10 mM TRIS); 10 mM TRIS pH 7.4 running buffer; aptamer on gold chip, MCH blocked; 10-1000 nM.
Assay [4] shares this test system. Put plainly: EIS aptasensor (C-SPE/AuNPs/APT/MCH). The following applies: 10 µM compound, 30 min, room temperature; [Fe(CN)6]3-/4- redox probe.

Regarding `CN(C)c1ccc2nc3ccc(N(C)C)cc3[s+]c2c1`, the binding entry in assay [1] is “yes”. On to `CCCCCCCCCC(=O)CC(=O)N[C@H]1CCOC1=O`, for which, in assay [2], the “KD,kinetic” value is 87.1 ± 10 nM. Also, in assay [3], the “KD,equilibrium” value is on record as 106.7 ± 9.3 nM. Take `CCCC(=O)N[C@H]1CCOC1=O`: the binding result in assay [4] is “weak”. The same measure, in the same setting: with `CCCCCCCCCCCC(=O)N[C@H]1CCOC1=O` the entry was “yes”; with `CCCCCCCC(=O)CC(=O)N[C@H]1CCOC1=O`, “yes”.
